From a melting point compilation (Tetko et al.; mined from patent text by program, amines drawn as free bases though some values may be those of a salt)

SMILES	melting point [°C]
N#Cc1ccc(C=O)c(-c2ccco2)c1	125
Cc1nc(NC(=O)c2cnn3c(C(F)(F)F)cc(-c4ccc(C(F)(F)F)c(OCC(F)(F)F)c4)nc23)sc1S(=O)(=O)NC(C)(C)CO	275
O=C1C(=O)N2CCSc3cc(Br)cc1c32	196
COC(=O)c1ccc(C(C)(C)NC(C)=O)cc1	165 to 167
COC(=O)C(=CNC(C)=O)C(C)=O	60 to 62
CCCn1nc2c(N)nc3ncccc3c2c1CC(C)C	257 to 260
COc1cc2[nH]c3ncnc(N4CCNCC4)c3c2cc1OC	185
CCc1nc(CCc2ccc(NC(=O)/C=C/c3cnn(CC)c3-c3ccc(F)cc3)cc2)cs1	190 to 191
COc1ccc2[nH]cc(CCCCN3CCN(c4ccc5oc(CO)cc5c4)CC3)c2c1	159
CCCCNC(=O)NS(=O)(=O)c1ccc(CCNC(=O)N2CCC(C)CC2=O)cc1 (centres undefined)	159 to 161
CC(=O)Nc1ccc(N2CCNCC2)cc1	191 to 193
COc1cc2c(cc1OC)C(Cc1ccc([N+](=O)[O-])cc1)NCC2 (centres undefined)	134 to 136
CC(=O)OCC(O)(COC(C)=O)c1ccc(F)cc1F	70.5 to 71.5
Cc1cccc2c(=O)[nH]c(CCCN(C)C)cc12	105 to 106
Cn1c(C(N)=O)nc([N+](=O)[O-])c1CBr	220 to 222
CCc1nn(-c2ccccc2)nc1C(C#N)C(=O)c1c(C)c(C)nn1C (centres undefined)	119

SMILES	melting point [°C]
CCn1c(=O)[nH]c2ncn(CC)c2c1=O	204 to 205
CC(=O)NC1CCC(NC(=O)C2CC3c4cccc5c4c(cn5C(C)C)CC3N(C)C2)CC1 (centres undefined)	> 280
CCOc1nc(NCc2ccco2)nc(Nc2ccc3[nH]c(-c4cccs4)nc3c2)n1	170 to 172
Cc1c(-c2ccc3sc(=O)[nH]c3c2)nc2ncccn12	> 290
CC(c1oc2ccccc2c(=O)c1-c1cccc(F)c1)n1nc(-c2ccc(O)cc2)c2c(N)ncnc21 (centres undefined)	244 to 247
CN(C(=O)OC(C)(C)C)c1cc(Sc2cc(C(C)(C)C)c(O)c(C(C)(C)C)c2)ccc1N	95 to 96
CC(=O)OCC1OC(n2cc(C(Br)=CBr)c(=O)[nH]c2=O)CC1OC(C)=O (centres undefined)	79 to 81
CS(=O)c1ccc(-c2nn(Cc3ccc(F)cc3)c(=O)cc2-c2ccc(F)cc2)cc1 (centres undefined)	198
CC1COc2c(N3CCC(n4cncn4)C3)c(F)cc3c(=O)c(C(=O)O)cn1c23 (single isomer, unassigned; (-))	229 to 231
COC1C2=C3C(=CN1OC)OCCC3CC(C(C)=O)C2 (centres undefined)	100 to 102
CN1C[C@@H](O)[C@H](Oc2ccccc2)C1 (relative stereo)	89 to 90
CC(O)C#CC1CCC2C3CCC4CC(O)CCC4(C)C3CCC12C (centres undefined)	169 to 171
CCCCCCCCN(CCCCCCCC)C(=O)c1cc(C(C)(C)C)c(OC(=O)c2cc(C(C)(C)C)c(O)c(C(C)(C)C)c2)c(C(C)(C)C)c1	145 to 146
COC(=O)/C=C/c1ccc2c(c1)C(C)(C)CC(=O)N2	174 to 175
Clc1cccc(Cl)c1-c1nsnc1OCCBr	60 to 61
CCNC(=O)Nc1ccc2c(c1)C(=O)N(CCO[N+](=O)[O-])CO2	142 to 144

Now from value to compound:

melting point [°C]	SMILES
302	COc1ccc(C(=O)Nc2c(Cl)cncc2Cl)c2c1oc1ccccc12
115 to 117	CSc1nc2ccc(Cl)cc2c(-c2ccccc2)c1N
149	COc1cc(NC(=S)NC(=O)c2ccccc2)cc(-c2ccccc2)c1
106	OC(=S)Cc1ccc(Cl)cc1
192 to 194	Nc1sc(-c2ccccn2)c(CN(C2CCCCC2)C2CCCCC2)c1C(=O)c1ccc(Cl)cc1
198 to 200	N#Cc1ccc(N(Cc2ccc(OS(N)(=O)=O)c(F)c2)n2cnnc2)cc1-c1ccccc1
227 to 229	C=C1c2cc(C(=O)O)ccc2CCC1n1ccnc1 (centres undefined)
231 to 233	COc1cc2c(Nc3ccc(Sc4ccccn4)cc3)c(C#N)cnc2cc1F
192 to 193	CC(C)c1cc(NC(=O)N2CCN(c3ccnc(-c4cccc(F)c4F)n3)CC2)nnc1Cl
80 to 82	Brc1ccc(-c2cnc(COCc3cc4ccccc4o3)o2)cc1
166 to 168	COc1ccccc1Sc1ccc2c(c1)CCC1N(C)C(=O)CCC21C (single isomer, unassigned; (+))
152	FC(F)(F)c1ccc2[nH]nc(-c3ccccc3)c2c1
112 to 114	O=C(CC1CSCCC1=O)c1ccc(F)cc1 (centres undefined)
201 to 203	O=C(c1ccccc1)C(O)n1cncc1Cl (centres undefined)
234 to 237	O=C(NCc1ccn(-c2cc3[nH]c(=O)c(=O)[nH]c3cc2[N+](=O)[O-])c1)NC1CCN(Cc2ccccc2)CC1
77 to 78	O=C(OCC1OC(OC(=O)c2ccccc2)C(F)C1OC(=O)c1ccccc1)c1ccccc1 (centres undefined)
115 to 118	CC(=O)NCC1CC(c2ccc(C3=CCN(C(=O)CO)CC3)cc2)=NO1 (centres undefined)
229 to 230	COc1ccc2c(c1)NC(=O)N(c1ccc(Cl)cc1)S2(=O)=O
> 250	CNCC1Cc2cc(-c3ccccc3)cc(-c3ccc(C)cc3)c2O1 (centres undefined)

melting point [°C]	SMILES
140 to 142	O=C(N[C@H](Cc1cccc(OC(F)(F)C(F)F)c1)[C@@H](O)c1ccc(F)nc1)c1cccc2c1C=CCCC2 (racemic)
146	CC[C@@H](O)CC(=O)N[C@H]1CC[C@H](CCN2CCN(c3nccc4c3OCC4)CC2)CC1
> 300	O=C(Nc1cccc(-c2ccnc3c(C(=O)c4cccs4)cnn23)c1)c1cccc(Br)c1
145	CC(C#Cc1ccc(-c2cccnc2S)o1)N(O)C(N)=O (centres undefined)
215 to 217	CCCOc1ccc(-c2ccc3c(c2)C=C(C(=O)O)CCN3C=O)cc1
142 to 144	CC(C)n1nc(-c2sc(NC(=O)CNCCO)nc2-c2ccccc2)ccc1=O
140 to 141	Clc1ncccc1-c1nc2cccnc2o1
63 to 80	COc1ccc(CN(CCCNc2nccc(=O)[nH]2)c2ccccn2)cc1
207 to 208	COc1cc(C#CCO)cc2c(O)c(C(=O)NCc3ccc(Cl)cc3)cnc12
240 to 242	O=P(O)(O)COc1ccc(-c2c3ccccc3cc3sc4ccccc4c23)cc1
197 to 199	C#CCN(Cc1ccc2nc[nH]c(=O)c2c1)c1ccc(C(C)=O)cc1
162	CC(C)(C)OC(=O)N1C[C@@H]2[C@H](C1)C(F)(F)CCC2(c1ccccc1)c1ccccc1 (racemic)
180 to 184	NCCCn1nc2c3c(c(Cl)ccc31)C(=O)c1c(OCc3ccccc3)ccc(OCc3ccccc3)c1-2
227 to 228	CC(C)(C)C(NC(=O)COc1ccccc1)Nc1c(Nc2cccnc2)c(=O)c1=O (centres undefined)
167	O=C1CCCc2nc3ccccc3c(NCc3ccccc3C(F)(F)F)c21
114 to 117	Nc1cccc(C(=O)c2cccc(C(=O)c3cccc(N)c3)c2)c1
213 to 215	Cc1csc2c(=O)n(N=Cc3ccc(Cl)cc3)cnc12
178 to 179	N#CCCNC(=O)c1cccc(-c2cccc3nn(Cc4cccc(C(F)(F)F)c4)cc23)n1
